Source: patent US10640506B2, “Cyclobutyl substituted pyrrolopyridine and pyrrolopyrimidines derivatives as JAK inhibitors” (Incyte Corporation, priority 2010, dated 2020)
pIC50: −log10 of the molar value. Structures can show the parent of a compound that is named as a salt. Where two headings read alike, the source gives them in different places.

Assays:
[1] = target: human JAK1 (a.a. 837-1142) (Homo sapiens, UniProt P23458); assay: In vitro JAK kinase assay (HTRF, phosphorylation of biotinylated peptide), JAK1; type: biochemical; conditions: 1 mM ATP, read-out: JAK1 IC50
Sequence of human JAK1 (a.a. 837-1142) (P23458 849-1154): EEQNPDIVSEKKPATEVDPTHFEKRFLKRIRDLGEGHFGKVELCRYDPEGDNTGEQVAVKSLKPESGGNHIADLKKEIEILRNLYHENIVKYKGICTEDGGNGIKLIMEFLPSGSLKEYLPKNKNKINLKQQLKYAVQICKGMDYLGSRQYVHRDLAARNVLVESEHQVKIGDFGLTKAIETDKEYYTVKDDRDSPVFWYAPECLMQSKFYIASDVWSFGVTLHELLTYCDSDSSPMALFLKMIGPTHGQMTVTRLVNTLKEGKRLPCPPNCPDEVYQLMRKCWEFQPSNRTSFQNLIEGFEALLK
Procedure: Compounds herein were tested for inhibitory activity of JAK targets according to the following in vitro assay described in Park et al., Analytical Biochemistry 1999, 269, 94-104. The catalytic domains of human JAK1 (a.a. 837-1142) and JAK2 (a.a. 828-1132) with an N-terminal His tag were expressed using baculovirus in insect cells and purified. The catalytic activity of JAK1 and JAK2 was assayed by measuring the phosphorylation of a biotinylated peptide. The phosphorylated peptide was detected by homogenous time resolved fluorescence (HTRF). […] Reactions were carried out at room temperature for 1 hour and then stopped with 20 μL 45 mM EDTA, 300 nM SA-APC, 6 nM Eu-Py20 in assay buffer (Perkin Elmer, Boston, Mass.). Binding to the Europium labeled antibody took place for 40 minutes and HTRF signal was measured on a Fusion plate reader (Perkin Elmer, Boston, Mass.). […] Data is indicated as ranges, wherein “+” is less than 10 nM; “++” is 10 nM to 25 nM; “+++” is greater than 25 nM to 100 nM; and “++++” is greater than 100 nM. Greater than 25 nM to 100 nM specifies a range with a lower endpoint “at greater than 25 nM” and an upper endpoint at 100 nM.

JAK2 (a.a. 828-1132) = target: T1, JAK2 (a.a. 828-1132) (Homo sapiens, UniProt O60674); assay: In vitro JAK kinase assay (HTRF, phosphorylation of biotinylated peptide), JAK2; type: biochemical; conditions: 1 mM ATP, read-out: JAK2 IC50
T1 construct: JAK2 (a.a. 828-1132); His tag (N)
T1 sequence (O60674 828-1132): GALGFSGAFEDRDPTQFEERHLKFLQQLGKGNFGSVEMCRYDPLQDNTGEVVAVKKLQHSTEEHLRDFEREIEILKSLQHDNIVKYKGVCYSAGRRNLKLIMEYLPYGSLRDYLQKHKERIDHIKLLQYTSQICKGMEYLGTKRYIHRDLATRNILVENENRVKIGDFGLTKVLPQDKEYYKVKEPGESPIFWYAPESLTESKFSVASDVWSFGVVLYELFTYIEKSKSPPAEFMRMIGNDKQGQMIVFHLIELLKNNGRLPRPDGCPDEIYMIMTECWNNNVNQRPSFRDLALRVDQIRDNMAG
Procedure: Compounds herein were tested for inhibitory activity of JAK targets according to the following in vitro assay described in Park et al., Analytical Biochemistry 1999, 269, 94-104. The catalytic domains of human JAK1 (a.a. 837-1142) and JAK2 (a.a. 828-1132) with an N-terminal His tag were expressed using baculovirus in insect cells and purified. The catalytic activity of JAK1 and JAK2 was assayed by measuring the phosphorylation of a biotinylated peptide. The phosphorylated peptide was detected by homogenous time resolved fluorescence (HTRF). […] Reactions were carried out at room temperature for 1 hour and then stopped with 20 μL 45 mM EDTA, 300 nM SA-APC, 6 nM Eu-Py20 in assay buffer (Perkin Elmer, Boston, Mass.). Binding to the Europium labeled antibody took place for 40 minutes and HTRF signal was measured on a Fusion plate reader (Perkin Elmer, Boston, Mass.). See Tables A-F for data related to compounds of the Examples (at 1 mM). Data is indicated as ranges, wherein “+” is less than 10 nM; “++” is 10 nM to 25 nM; “+++” is greater than 25 nM to 100 nM; and “++++” is greater than 100 nM. Greater than 25 nM to 100 nM specifies a range with a lower endpoint “at greater than 25 nM” and an upper endpoint at 100 nM.

pIC50 ([1]; Table A)	pIC50 (JAK2 (a.a. 828-1132); Table A)	pIC50 ([1]; Table B)	pIC50 (JAK2 (a.a. 828-1132); Table B)	Structure (SMILES)
7.60 to 8.00	< 7.00	–	–	N#CC[C@]1(n2cc(-c3ncnc4[nH]ccc34)cn2)C[C@@H](N2CCN(C(=O)c3cc(F)cnc3Cl)CC2)C1 [Example 9a, {cis-3-{4-[(2-chloro-5-fluoropyridin-3-yl)carbonyl]piperazin-1-yl}-1-[4-(7H-pyrrolo[2,3-d]pyrimidin-4-yl)-1H-pyrazol-1-yl]cyclobutyl}acetonitrile]
–	–	> 8.00	7.60 to 8.00	N#CC[C@]1(n2cc(-c3ncnc4[nH]ccc34)cn2)C[C@H](N2CCN(C(=O)c3cc(F)cnc3Cl)CC2)C1 [Example 9b, {trans-3-{4-[(2-chloro-5-fluoropyridin-3-yl)carbonyl]piperazin-1-yl}-1-[4-(7H-pyrrolo[2,3-d]pyrimidin-4-yl)-1H-pyrazol-1-yl]cyclobutyl}acetonitrile]
> 8.00	< 7.00	–	–	N#CC[C@]1(n2cc(-c3ncnc4[nH]ccc34)cn2)C[C@@H](N2CCN(C(=O)c3cncc(F)c3)CC2)C1 [Example 10a, {cis-3-{4-[(5-fluoropyridin-3-yl)carbonyl]piperazin-1-yl}-1-[4-(7H-pyrrolo[2,3-d]pyrimidin-4-yl)-1H-pyrazol-1-yl]cyclobutyl}acetonitrile]
–	–	> 8.00	7.00 to 7.60	N#CC[C@]1(n2cc(-c3ncnc4[nH]ccc34)cn2)C[C@H](N2CCN(C(=O)c3cncc(F)c3)CC2)C1 [Example 10b, {trans-3-{4-[(5-fluoropyridin-3-yl)carbonyl]piperazin-1-yl}-1-[4-(7H-pyrrolo[2,3-d]pyrimidin-4-yl)-1H-pyrazol-1-yl]cyclobutyl}acetonitrile tris(trifluoroacetate) Salt]
7.60 to 8.00	< 7.00	–	–	N#CC[C@]1(n2cc(-c3ncnc4[nH]ccc34)cn2)C[C@@H](N2CCN(C(=O)c3ccnc(C(F)F)c3F)CC2)C1 [Example 11a, {cis-3-{4-[2-(difluoromethyl)-3-fluoroisonicotinoyl]piperazin-1-yl}-1-[4-(7H-pyrrolo[2,3-d]pyrimidin-4-yl)-1H-pyrazol-1-yl]cyclobutyl}acetonitrile]
–	–	> 8.00	7.00 to 7.60	N#CC[C@]1(n2cc(-c3ncnc4[nH]ccc34)cn2)C[C@H](N2CCN(C(=O)c3ccnc(C(F)F)c3F)CC2)C1 [Example 11b, {trans-3-{4-[2-(difluoromethyl)-3-fluoroisonicotinoyl]piperazin-1-yl}-1-[4-(7H-pyrrolo[2,3-d]pyrimidin-4-yl)-1H-pyrazol-1-yl]cyclobutyl}acetonitrile]
> 8.00	7.00 to 7.60	–	–	N#CC[C@]1(n2cc(-c3ncnc4[nH]ccc34)cn2)C[C@@H](N2CCN(C(=O)c3cc(F)cc(C#N)c3)CC2)C1 [Example 12a, 3-[(4-{cis-3-(cyanomethyl)-3-[4-(7H-pyrrolo[2,3-d]pyrimidin-4-yl)-1H-pyrazol-1-yl]cyclobutyl}piperazin-1-yl)carbonyl]-5-fluorobenzonitrile]
–	–	> 8.00	7.60 to 8.00	N#CC[C@]1(n2cc(-c3ncnc4[nH]ccc34)cn2)C[C@H](N2CCN(C(=O)c3cc(F)cc(C#N)c3)CC2)C1 [Example 12b, 3-[(4-{trans-3-(cyanomethyl)-3-[4-(7H-pyrrolo[2,3-d]pyrimidin-4-yl)-1H-pyrazol-1-yl]cyclobutyl}piperazin-1-yl)carbonyl]-5-fluorobenzonitrile]
> 8.00	7.00 to 7.60	–	–	N#CC[C@]1(n2cc(-c3ncnc4[nH]ccc34)cn2)C[C@@H](N2CCN(C(=O)c3nc(C(F)(F)F)cs3)CC2)C1 [Example 13a, [cis-1-[4-(7H-pyrrolo[2,3-d]pyrimidin-4-yl)-1H-pyrazol-1-yl]-3-(4-{[4-(trifluoromethyl)-1,3-thiazol-2-yl]carbonyl}piperazin-1-yl)cyclobutyl]acetonitrile]
–	–	> 8.00	7.00 to 7.60	N#CC[C@]1(n2cc(-c3ncnc4[nH]ccc34)cn2)C[C@H](N2CCN(C(=O)c3nc(C(F)(F)F)cs3)CC2)C1 [Example 13b, [trans-1-[4-(7H-pyrrolo[2,3-d]pyrimidin-4-yl)-1H-pyrazol-1-yl]-3-(4-{[4-(trifluoromethyl)-1,3-thiazol-2-yl]carbonyl}piperazin-1-yl)cyclobutyl]acetonitrile]
